No end group written: not given here.

One assay has as its system bacteria. Conditions: cited from earlier work.
Assay [1] concerns RecA. Briefly: RecA mRNA by real-time RT-PCR in MRPA. It counts as cell-based. Conditions: mRNA normalized to 16s.
The next assay has as its system MRSA. Briefly: bacterial clearance in lung lavage fluid of rats with MRSA-induced pneumonia. It counts as in vivo, rat. Conditions: HNP-1 0.1 ml of 20 μg/ml (2 μg); penicillin 12 μg/ml; intratracheal spray once daily for 3 days.
For assay [2], the system named is RecA. Conditions: real-time RT-PCR, mRNA normalized to 16s.
Protocol: (F) Quantification of RecA mRNA in MRSA by real-time RT-PCR.
Analysis of gene expression by real-time RT-PCR. mRNA from RecA and
LexA was measured by real-time PCR (RT-PCR). XPX-1 cells harvested 3 h after
induction and the total RNA was extracted with the TRIzol® Reagent (Thermo
Fisher Scientific, Waltham, MA, USA) according to the manufacturer’s instruction.
Reversed transcription was performed with the ReverTra Ace qPCR RT Kit
(TOYOBO, Osaka, Japan). The primer sequence of RecA and LexA was as follows:
RecA (forward 5’-[sequence]-3’, reverse
5’-[sequence]-3’); LexA (forward
5’-[sequence]-3 ’ , reverse 5 ’
-[sequence]-3’ ). The relative expression level of RecA and
LexA was normalized to 16s by using the 2- CT method(11).
A short description of another assay: H&E lung pathology. It counts as in vivo, rat. Conditions: MRSA-induced pneumonic rats.
The test system of assay [3] is RecA. As to the method: The inclusion bodies were solubilized in denaturing solution (20 mM Tris, 8 M urea, 20 mM DTT, pH 8.5) at a ratio of 1:20 (grams of inclusion body wet weight: mL of volume) and the suspension was shaken gently for 4 h at room temperature.
After centrifugation at 12,000 ×g for 15 min, the supernatant was diluted directly into refolding buffer (20 mM Tris,1 mM cystine, 3 mM cysteine, 2 M urea, pH 10.0).
After refolding at 4°C overnight, the sample pH was adjusted to 4.5 and the sample was centrifuged at 4,000 ×g for 20 min.
The solubilized protein samples were loaded onto a pre-equilibrated HiTrap Chelating HP (5 mL, GE Healthcare, Chicago, IL, USA) ata flow rate of 10 mL/min inbuffer A (20 mM Tris, 2 M NaCl, pH 7.5). […] The purified preproHNP-1 was quantified with BCA according to standard procedures. […]
imidazole) and analyzed by a 12% Tris-Tricine gel followed by Coomassie brilliant blue G-250 staining. […]
Proteomics analysis. […] After in-gel digestion by trypsin, the samples were analyzed by LC-MS/MS using a homemade column (75 μm internal diameter ×15 cm long) packed with 3 μm C18 reverse phase beads (Michrom Bioresources, Inc., Auburn, CA, USA), a 60 min gradient was performed on an LTQ-Orbitrap Velos mass spectrometer (Thermo Fisher Scientific, San Jose, CA, USA). […]

The next assay concerns E. coli strain XPX-1. Briefly: growth and viable count of E. coli XPX-1 after IPTG-induced expression. It counts as cell-based. Conditions: XPX-1, 1 mM IPTG, Luria-Bertani medium, 37°C.
For the next assay, the system named is E. coli. Briefly: growth curve of E. coli treated with purified recombinant peptides. Conditions: 20 μg/ml; compared with regular growth medium without IPTG induction. It counts as cell-based.

Protocol for E. coli strain XPX-1: XPX-1 cells were grown to an approximate optical density (OD600) of 0.4 in 20 ml of Luria−Bertani medium containing kanamycin (50 μg/ml) at 37°C, and then IPTG was added at a final concentration of 1 mM to induce the expression of preproHNP-1.
(B) Growth curves of E. coli strain XPX-1 containing pET-28a(+)-preproHNP-1 with (+IPTG) or without (−IPTG) 1 mM IPTG induction. […] Data were analyzed using a two-tailed Student's t test and plotted as the mean ± SD for each condition. **, P < 0.01.
The induction time points of IPTG are labeled as indicated. […] The induction time points of IPTG are labeled as indicated. (D) Bacterial colony count after IPTG induction. The induction time points are labeled as indicated. The number of viable cells were counted after growing for 16 h on plates containing Luria-Bertani broth media. […] The growth curve of E. coli strain XPX-1 with 1 mM IPTG induction as a positive control and XPX-1 without IPTG induction as a negative control. […] Data were analyzed using a two-tailed Student's t test and are plotted as the mean ± SD for each condition. *, P < 0.05 and **, P < 0.01.
E. coli strains and plasmids.
After verifying the sequence, the vectors were transformed into E. coli BL21 (DE3) competent cells to obtain XPX-1, which was used to express the recombinant protein preproHNP-1. […]
Protocol for H&E lung pathology: (C) Pathological evaluation via H&E staining in pneumonic model rats. […] Data were analyzed using a two-tailed Student's t test and are plotted as the mean ± SD for each condition. n = 3; *, P < 0.05; and **, P < 0.01.
(§1) MRSA and MRPA were isolated from the Affiliated Hospital of Xuzhou Medical University (Jiangsu, China) and obtained from Professor Shengqi Wang (Xuzhou Medical University, Jiangsu, China). Bacterial pneumonia rats were prepared by spraying MRSA suspensions into the lungs via the trachea with a long soft plastic tube, as described in our previous research ([30]). The rats were inoculated using tracheal intubation with 0.2 ml of 10^8 CFU/ml MRSA suspensions. After 8 h, the rats were given medication. […] All of the medicines were sprayed into the rat lungs through the trachea using an intratracheal MicroSprayer Aerosolizer (IA-1B; PennCentury Inc., Wyndmoor, PA, USA) once daily for 3 days without anesthesia.
Preparation of pneumonic model rats and medicine administration. The
(§2) clinically isolated bacterial strain MRSA was cultivated in LB medium at 37 °C with
(§3) continuous shaking (200 rpm) overnight. Then, the concentration of MRSA was
(§4) determined by the optical density (OD) at 600 nm based on the turbidity of the cell
suspension. Subsequently, the bacterial suspension was diluted with LB medium, and
a final density of 10^8 CFU/mL was obtained for animal testing. Male […]
Protocol for MRSA: (B) Comparison of the bacterial counts in the different treatment groups. The number of MRSA isolated from lung lavage fluid were counted on the agar-containing culture plates followed by culturing for 36 h at 37°C. […] Data were analyzed using a two-tailed Student's t test and are plotted as the mean ± SD for each condition. n = 3; *, P < 0.05; and **, P < 0.01.
as §1
Preparation of pneumonic model rats and medicine administration.
as §2, §3, §4
suspension. […]

Take PR-39: the AMP-induced filamentation result in the assay on bacteria is “filamentation has also been described”.
On to “HNP-2: antimicrobial peptide cited for filamentation (CYCRIPACIAGERRYGTCIYQGRLWAFCC; ends and bridges not checked; cysteine pairing not given here; UniProt P59665 66-94, looked up)”, for which, in the assay on bacteria, the AMP-induced filamentation entry is recorded as “filamentation has also been described”.
For the molecule “indolicidin (ILPWKWPWWPWRR; ends and bridges not checked; UniProt P33046 131-143, looked up) [antimicrobial peptide cited for filamentation]”, the AMP-induced filamentation result in the assay with bacteria was “filamentation has also been described”.
Turning to penicillin, the “RecA expression in MRPA” value in the assay on RecA [1] is recorded as “increased significantly”. Also, the bacterial clearance effect result in the assay with MRSA is reported as “neither HNP-1 nor penicillin treatment had any effect”. Besides, the “RecA expression in MRSA” value in the assay on RecA [2] is reported as “increased significantly”. In addition, the “exudation, inflammation, hemorrhage (H&E)” value in “H&E lung pathology” was “alleviated these symptoms to a certain degree”.

B1: preproHNP-1: full-length precursor of HNP-1 tagged with six histidine residues, cloned into pET-28a(+), expressed in E. coli XPX-1 (protein, UniProt P59665 1-94, looked up)
chain: MRTLAILAAILLVALQAQAEPLQARADEVAAAPEQIAADIPEVVVSLAWDESLAPKHPGSRKNMACYCRIPACIAGERRYGTCIYQGRLWAFCC
modifications: full-length His6 tag
As for B1, the “interaction with RecA” value with RecA [3] (anti-RecA co-immunoprecipitation) is given as “HNP-1, but not full length 6x His-tagged preproHNP-1, interacted with RecA”. Moreover, in the assay with RecA [3] (anti-RecA immunoprecipitation, Western blot with anti-HNP-1), the “co-precipitation with RecA over induction time” value was “decreased with time”. The “OD600 reached after induction” value in the assay with E. coli strain XPX-1 was around 1. Moreover, the “growth curve of E. coli in medium with purified protein” value with E. coli is “did not differ from those cultured in regular growth medium without IPTG induction”.

B2: HNP-5: antimicrobial peptide cited for filamentation (peptide, UniProt Q01523 20-94, looked up)
Defensin alpha 5: ESLQERADEATTQKQSGEDNQDLAISFAGNGLSALRTSGSQARATCYCRTGRCATRESLSGVCEISGRLYRLCCR
modifications: Defensin-5
notes: antimicrobial peptide cited for filamentation
As for B2, the AMP-induced filamentation entry in the assay on bacteria was “filamentation has also been described”.

The record behind these values is PMC8754131 (Microbiology Spectrum, 2022).
